# Columns and labels:
# Type in all cases: in vivo, C57BL6 mice
# [1] = Levels of blood carbon monoxide hemoglobin (COHb) after oral administration
# Protocol: The levels of COHb (carbon monoxide bound to hemoglobin) were measured at different time points after oral administration of CORM-401 in two groups of eight-week-old male C57BL6 mice that were fed either a standard diet (SD) or a high fat diet (HFD) for 14 weeks (n=9-10 per group). CORM-401 was freshly prepared in phosphate buffer solution (PBS) and administered orally at a dose of 30 mg/kg=90 μmoles/kg (n=6) and COHb in blood was measured after 1, 6, 24 and 48 hours. • b) Results
# [2] = test system: intestinal microbiota of HFD mice; experiment: Abundance of bacterial species of intestinal microbiota in faeces (shotgun metagenomic/metatranscriptomic sequencing)
# Protocol: Eight-week-old male C57BL6 mice weighing approximately 25 g were fed either a standard diet (SD), high fat diet (HFD) or HFD+CORM-401 for 14 weeks (n=9-10 per group). CORM-401 was prepared freshly in phosphate buffer solution (PBS) and administered orally to mice three times a week each time at a dose of (30 mg/kg=90 μmoles/kg) during the entire HFD regime. Faeces from the three groups of mice were then collected after the 14 week HFD regime for microbiota analysis before mice were sacrificed.
# The stool samples DNA and RNA (n=3 per group) were extracted and the sequencing was carried out by a shotgun metagenomic/metatranscriptomic technique as previously described. Briefly, a pre-extraction step combining mechanical, enzymatic and chemical procedures was performed prior to extraction by means of a QIAsymphony PowerFecal Pro DNA Kit (QIAGEN). The extracts were used for DNA/RNA library preparation and determination of pair-end sequences using a NextSeq500 Instrument (Illumina). Fastq files were analysed by an in-house software MetaMIC (v2.2.0). The data were filtered based on quality (phred score) and the sequences were mapped against several custom databases, counted and collected in a separate Fastq file. Sequence counts were made for each bacterial species and compared to the environmental control. The number of sequences for each species was used to determine their relative abundance in each group of mice. • b) Results
# [3] = CO accumulation in intestinal tissues after oral administration (hemoCD1 quantification); conditions: oral 30 mg/kg
# Protocol: Eight-week-old male C57BL6 mice weighing approximately 25 g were treated with an oral administration of either CORM-401 (30 mg/kg) or PBS (control group) and then sacrificed after 1, 3, 6, 24 and 48 hours (n=6 per time point). Organs were collected to determine the levels of CO accumulation in different intestinal tissues following the two treatments. The body compartments where the intestinal microbiota is most likely to be present such as the caecum, caecum content, colon and faeces were analyzed. CO accumulation was quantified using the CO sensitive scavenger hemoCD1 as previously reported by the inventors such as in Mao et al, 2021 [10]; Minegishi et al, 2017 [11]. Briefly, fifty milligrams of tissue were homogenized in 0.5 ml PBS in the presence of hemoCD1 (2-10 μM) and sodium dithionite (1 mg). Tissue homogenates were first sonicated, then samples were centrifuged, and the supernatants filtered before measurements by UV-VIS absorption spectroscopy. The concentration of CO was calculated from the absorbances at 422 and 434 nm using a reported equation (Kitagishi et al, 2010; Braud et al 2018 [13]). • b) Results
# [4] = HFD + CORM, faeces after 14 weeks, 30 mg/kg orally three times a week, average of 3
# [5] = HFD mice treated 14 weeks, 30 mg/kg orally three times a week
smiles,measurement,setting,value
CN(CC(=O)O)C(=S)[S-].[C-]#[O+].[C-]#[O+].[C-]#[O+].[C-]#[O+].[Mn] [CORM-401],COHb levels in blood,"[1]; 1 hour after oral administration of 30 mg/kg, both SD-fed and HFD-fed mice",significantly increased
same,Period over which blood COHb gradually decreased to baseline levels,"[1]; oral 30 mg/kg, SD-fed and HFD-fed mice",48 h
same,Abundance of Adlercreutzia equolifaciens,[2]; [4],4445 number of sequences
same,Abundance of Aerococcus viridans,[2]; [4],1650 number of sequences
same,Abundance of Akkermansia muciniphila,[2]; [4],120300 number of sequences
same,Abundance of Alistipes finegoldii,[2]; [4],6727 number of sequences
same,Abundance of Alistipes shahii,[2]; [4],9490 number of sequences
same,Abundance of Bacteroides caecimuris,[2]; [4],14812 number of sequences
same,Abundance of Bacteroides cellulosilyticus,[2]; [4],246 number of sequences
same,Abundance of Bacteroides dorei,[2]; [4],3093 number of sequences
same,Abundance of Bacteroides fragilis,[2]; [4],3651 number of sequences
same,Abundance of Bacteroides xylanisolvens,[2]; [4],1151 number of sequences
same,Abundance of Barnesiella viscericola,[2]; [4],350 number of sequences
same,Abundance of Blautia sp. YL58,[2]; [4],934 number of sequences
same,Abundance of Burkholderiales bacterium YL45,[2]; [4],159 number of sequences
same,Abundance of Carnobacterium divergens,[2]; [4],1726 number of sequences
same,Abundance of Clostridioides difficile,[2]; [4],1101 number of sequences
same,Abundance of Clostridium bolteae,[2]; [4],3559 number of sequences
same,Abundance of Enterococcus faecalis,[2]; [4],4655 number of sequences
same,Abundance of Enterococcus faecium,[2]; [4],7750 number of sequences
same,Abundance of Erysipelotrichaceae bacterium I46,[2]; [4],1788 number of sequences
same,Abundance of Faecalibacterium prausnitzii,[2]; [4],3622 number of sequences
same,Abundance of Faecalibaculum rodentium,[2]; [4],120296 number of sequences
same,Abundance of Faecalitalea cylindroides,[2]; [4],1039 number of sequences
same,Abundance of Flavonifractor plautii,[2]; [4],7720 number of sequences
same,Abundance of Intestinimonas butyriciproducens,[2]; [4],2426 number of sequences
same,Abundance of Lachnoclostridium phocaeense,[2]; [4],2366 number of sequences
same,Abundance of Lachnoclostridium sp. YL32,[2]; [4],14254 number of sequences
same,Abundance of Lactobacillus acidipiscis,[2]; [4],630 number of sequences
same,Abundance of Lactobacillus agilis,[2]; [4],2223 number of sequences
same,Abundance of Lactobacillus animalis,[2]; [4],1355 number of sequences
same,Abundance of Lactobacillus fermentum,[2]; [4],10256 number of sequences
same,Abundance of Lactobacillus gallinarum,[2]; [4],928 number of sequences
same,Abundance of Lactobacillus gasseri,[2]; [4],61826 number of sequences
same,Abundance of Lactobacillus helveticus,[2]; [4],2955 number of sequences
same,Abundance of Lactobacillus johnsonii,[2]; [4],162300 number of sequences
same,Abundance of Lactobacillus murinus,[2]; [4],4440 number of sequences
same,Abundance of Lactobacillus plantarum,[2]; [4],1011 number of sequences
same,Abundance of Lactobacillus reuteri,[2]; [4],339700 number of sequences
same,Abundance of Lactobacillus ruminis,[2]; [4],2160 number of sequences
same,Abundance of Lactobacillus salivarius,[2]; [4],3546 number of sequences
same,Abundance of Lactococcus garvieae,[2]; [4],3953 number of sequences
same,Abundance of Lactococcus lactis,[2]; [4],642300 number of sequences
same,Abundance of Lactococcus piscium,[2]; [4],4133 number of sequences
same,Abundance of Libanicoccus massiliensis,[2]; [4],4193 number of sequences
same,Abundance of Listeria monocytogenes,[2]; [4],2783 number of sequences
same,Abundance of Mordavella sp. Marseille-P3756,[2]; [4],1240 number of sequences
same,Abundance of Muribaculum intestinale,[2]; [4],21500 number of sequences
same,Abundance of Olsenella sp. Marseille-P2300,[2]; [4],4915 number of sequences
same,Abundance of Olsenella uli,[2]; [4],1483 number of sequences
same,Abundance of Olsenella umbonata,[2]; [4],1620 number of sequences
same,Abundance of Oscillibacter valericigenes,[2]; [4],1053 number of sequences
same,Abundance of Parabacteroides goldsteinii,[2]; [4],43 number of sequences
same,Abundance of Romboutsia ilealis,[2]; [4],21923 number of sequences
same,Abundance of Roseburia intestinalis,[2]; [4],1190 number of sequences
same,Abundance of Ruminiclostridium sp. KB18,[2]; [4],18969 number of sequences
same,Abundance of Streptococcus thermophilus,[2]; [4],7718 number of sequences
same,Abundance of uncultured Firmicutes bacterium,[2]; [4],1355 number of sequences
same,Change in the abundance of Alistipes fingoldii,[2]; [5],marked increase
same,Change in the abundance of Alistipes shahii,[2]; [5],marked increase
same,Change in the abundance of Olsenella uli,[2]; [5],marked increase
same,Change in the abundance of Olsenella umbonata,[2]; [5],marked increase
same,Change in the abundance of Romboutsia ilealis,[2]; [5],decrease
same,Rank of Akkermansia muciniphila in the intestinal bacteria profile,[2]; [5],among the most dominant species
same,Overall effect on the intestinal microbiota,"[2]; HFD mice, oral administration",reshapes the intestinal microbiota HFD mice towards a healthy phenotype
same,Time at which the maximum CO content was reached,"[3]; all compartments (caecum, caecum content, colon, faeces)",6 h
same,Time after which CO content returned to basal levels,[3]; all compartments,48 h
same,CO accumulation (time-dependent),"[3]; caecum tissue, caecum content, colon and faeces, vs PBS control",significantly accumulated

# From patent US20250295626A1, “CARBON MONOXIDE-RELEASING MOLECULE (CORM) OR COMPOSITION THEREOF FOR USE IN THE TREATMENT OR THE PREVENTION OF AN INTESTINAL DYSBIOSIS IN A SUBJECT” (priority 2022, published 2025)
